# Source: patent publication US5569655A, “Substituted heterocyclylisoquinolinium salts and compositions and method of use thereof” (Sterling Winthrop Inc., priority 1994, dated 1996)
# Columns and labels:
# [1] = biological target: PCP recognition sites (PCP receptor); assay: [3H]TCP radioreceptor assay (binding to PCP recognition sites); set-up: species or system rat (male Sprague-Dawley; details: rat whole brain membranes, approx. 1 nM [3H]TCP; for Ki: mean of at least two determinations
# Description: [^3 H]TCP Radioreceptor Assay
# [^3 H]TCP binding to PCP recognition sites was performed as described by Vignon et al. Brain Research 1983, 280, 194-197. Male Sprague-Dawley rats were sacrificed by decapitation, and whole brains were homogenized in 10 volumes (wt/vol) of cold Tris-HCl buffer (50 mM, pH 7.7) using a Brinkmann Polytron (setting 6, 30 sec). The homogenate was centrifuged at 40,000×g for 10 min at 4° C. The supernatant was decanted, and the homogenization and centrifugation steps were repeated twice as described above. Following this, the pellet was resuspended in Tris-HCl (5 mM, pH 7.7) at a tissue concentration of 0.5-0.75 g/ml, and one ml aliquots were frozen at -70° C. until use. The binding characteristics for PCP recognition sites were not altered by the freezing of membrane suspensions.
# On the day of the assay, membrane aliquots were thawed, resuspended in fresh 5 mM Tris-HCl buffer at a tissue concentration of 1 mg/ml, and stored on ice until use. Each assay tube contained 100 μl of [^3 H]TCP at a final concentration of approximately 1 nM, 100 μl of various concentrations of the compounds of interest, 500 μl of the tissue suspension and 300 μl of buffer to a final assay volume of 1 ml and a final protein concentration of 0.5 mg/tube. Non-specific binding was defined by addition of a final concentration of 100 μM PCP to blank tubes. All tubes were incubated at room temperature for 25 min before termination of the reaction by rapid filtration over Whatman GF/B glass fiber filters that had been presoaked in a solution of 0.5% polyethylenimine for at least 1 hr prior to use. Filters were washed with three 4 ml volumes of cold Tris buffer. Following addition of scintillation cocktail, the amount of bound radioactivity was determined by liquid scintillation spectrometry using a Beckman LS 5000TA liquid scintillation counter with an efficiency for tritium of approximately 55%. Inhibition constants (Ki values) were calculated using the EBDA/LIGAND program (McPherson, J. Pharmacol. Meth. 1985, 14, 213-228), purchased from Elsevier/Biosoft, Inc. The results are reported as Ki values (in nM) which are expressed as the mean of at least two separate determinations, or as a percent (%) inhibition of binding at 10 μM.
# (§1) Table 4 summarizes the results obtained from the testing of representative compounds of the invention in the [^3 H]TCP radioreceptor assay as well as in the antagonism of NMDA-induced neurotoxicity in cultured neurons.
# [2] = tested on: NMDA-induced neurotoxicity in cultured cortical neurons; assay: Antagonism of NMDA-induced neurotoxicity in cultured neurons; type: cell-based, mouse (Swiss-Webster); details: Mus musculus, Cortical neurone, 500 μM NMDA for 30 minutes; LDH activity after 24 hours
# Description: Antagonism of NMDA-induced Neurotoxicity in Cultured Neurons
# Preparation of cultured cortical neurons
# Pregnant, Swiss-Webster mice were obtained from Taconic Farms (Germantown, N.Y.) and sacrificed 16 days post conception. Fetuses were removed and placed in a sterile dish containing Hank's balanced salt solution (HBSS), pH 7.4. Brain cortices were dissected, meninges were removed, the tissue was minced and placed into a solution of HBSS containing 0.25% (w/v) trypsin at 37° C. for 15 minutes. Tissue was then triturated with a sterile pasteur pipet, diluted with minimal essential media (Gibco 330-1430), pH 7.4, supplemented with 10% horse serum, 10% fetal calf serum, 2 mM 1-glutamine, 21 mM d-glucose, 2.2 g/L sodium bicarbonate, 1000 U/ml penicillin, and 1,000 μg/ml streptomycin. Cells were plated onto Falcon primaria 96 well plates at a final density of 50,000 cells/well and incubated at 37° C. in the presence of 5% (v/v) carbon dioxide. After 5 days, plating media was replaced with maintenance media containing minimal essential media (Gibco 330-1430), pH 7.4, supplemented with 10% horse serum, 10% 1-glutamine, 21 mM D-glucose, 2.2 g/l sodium bicarbonate,1,000 U/ml penicillin, 1,000 μg/ml streptomycin, and 10 μM cytosine arabinoside. On days 7 and 10, media was replaced with maintenance media as above lacking the cytosine arabinoside. Experiments were conducted on day 13.
# Neuroprotection Assessment
# Day 13 cultured cortical neurons were washed twice with minimal essential media, pH 7.4 and then exposed for 30 minutes to 500 μM N-methyl-D-aspartic acid (NMDA) with or without varying concentrations of test agents. […] MK-801 and test agents were prepared in minimal essential media supplemented with 21 mM d-glucose and 2.2 g/L sodium bicarbonate (MEM). After 30 minutes, media was replaced with MEM alone. Exposure of neurons to test agents was limited to the NMDA treatment period. Twenty-four hours after removal of NMDA, an aliquot of media from each well was removed for assessment of cell injury by determining lactate dehydrogenase (LDH) activity by the method of Wroblewski and LaDue Proc. Soc. Exp. Biol. Med. 1955, 90, 210-213. The results are expressed as an IC50 (in nM) value (concentration causing 50% inhibition) for the antagonism of NMDA-induced neurotoxicity.
# as §1
Compound,Ki [1] [nM],IC50 [2] [nM],[3H]TCP percent inhibition of binding @ 10 μM ([1]; 10 μM) [%]
"c1ccc(C(c2ccccc2)n2cc[n+]3c2C2c4ccccc4C3CC2(c2ccoc2)c2ccoc2)cc1 (stereo not shown) [203(d), 11,11-di(3-furyl)-5,10-ethano-5,10-dihydro-1-(1,1-diphenylmethyl)imidazo[1,2-b]isoquinolin-4-ium hexafluorophosphate]",306,–,–
"COc1cccc2c1C1c3scc[n+]3C2CC1(c1ccoc1)c1ccoc1 (stereo not shown) [207(b), 11,11-di(3-furyl)-9-methoxy-5,10-ethano-5,10-dihydrothiazolo[3,2-b]isoquinolinium chloride]",14.1,–,–
"CCOC1(OCC)C2c3ccccc3C([n+]3ccsc32)C1(C)C (stereo not shown) [Example 1i, 11,11-diethoxy-12,12-dimethyl-5,10-ethano-5,10-dihydrothiazolo[3,2-b]isoquinolinium chloride 3/5 hydrate]",6.1,173,–
"c1ccc2c(c1)C1CC(c3ccoc3)(c3ccoc3)C2c2scc[n+]21 (single isomer, unassigned; (-)) [5(c), (-)-11,11-di(3-furyl)-5,10-ethano-5,10-dihydrothiazolo[3,2-b]isoquinolinium chloride]",5,32,–
"c1ccc(C2(c3ccccc3)CC3c4ccccc4C2c2scc[n+]23)cc1 (stereo not shown) [2(b), 11,11-diphenyl-5,10-ethano-5,10-dihydrothiazolo[1,2-b]isoquinolin-4-ium chloride]",4.2,–,–
"CCCCn1cc[n+]2c1C1c3ccccc3C2CC1(c1ccoc1)c1ccoc1 (stereo not shown) [201(f), 11,11-di(3-furyl)-5,10-ethano-5,10-dihydro-1-butylimidazo-[1,2-b]isoquinolin-4-ium chloride]",36.3,–,–
"c1ccc(Cn2cc[n+]3c2C2c4ccccc4C3CC2(c2cc[nH]n2)c2cc[nH]n2)cc1 (stereo not shown) [202(c), 11,11-di(pyrazol-3-yl)-5,10-ethano-5,10-dihydro-1-benzylimidazo-[1,2-b]isoquinolin-4-ium chloride]",36.5,–,–
"Cn1cc[n+]2c1C1c3ccccc3C2CC1(c1ccoc1)c1ccoc1 (stereo not shown) [13(b), 11,11-di(3-furyl)-5,10-ethano-5,10-dihydro-1-methylimidazo[1,2-b]isoquinolin-4-ium chloride]",2.9,257,–
"CCOC1(OCC)C2c3ccccc3C([n+]3ccn(C)c32)C1(C)C (stereo not shown) [7(F), 11,11-diethoxy-12,12-dimethyl-5,10-ethano-5,10-dihydro-1-methylimidazo[1,2-b]isoquinolin-4-ium chloride]",8.2,53,–
"c1ccc2c(c1)C1CC(c3ccn[nH]3)(c3ccn[nH]3)C2c2scc[n+]21 (stereo not shown) [18(h), 11,11-di-(pyrazol-5-yl)-5,10-ethano-5,10-dihydrothiazolo[3,2-b]isoquinolinium chloride]",21,480,–
"O=C1CC(C2(C3=COC(=O)C3)CC3c4ccccc4C2c2scc[n+]23)=CO1.[O-][Cl+3]([O-])([O-])[O-] (stereo not shown) [Example 17, 11,11-di-(5-oxo-4,5-dihydro-3-furyl)-5,10-ethano-5,10-dihydrothiazolo[3,2-b]isoquinolinium perchlorate]",640,–,–
"Cn1cc[n+]2c1C1c3ccccc3C2CC1(c1ccccc1)c1ccccc1 (stereo not shown) [3(b), 11,11-diphenyl-5,10-ethano-5,10-dihydro-1-methylimidazo[1,2-b]isoquinolin-4-ium chloride]",13,–,–
"c1ccc2c(c1)C1CC(c3ccoc3)(c3ccoc3)C2c2scc[n+]21 (racemic) [4(e), 11,11-di(3-furyl)-5,10-ethano-5,10-dihydrothiazolo[3,2-b]isoquinolinium chloride]",2.9,50,–
"c1ccc(CCCn2cc[n+]3c2C2c4ccccc4C3CC2(c2ccoc2)c2ccoc2)cc1 (stereo not shown) [200(g), 11,11-di(3-furyl)-5,10-ethano-5,10-dihydro-1-(3-phenylpropyl)imidazo[1,2-b]isoquinolin-4-ium chloride]",67.8,–,–
"c1ccc(Cn2cc[n+]3c2C2c4ccccc4C3CC2(c2ccccc2)c2ccccc2)cc1 (stereo not shown) [9(b), 11,11-diphenyl-5,10-ethano-5,10-dihydro-1-benzylimidazo[1,2-b]isoquinolin-4-ium chloride]",89,–,–
"c1ccc(-n2cc[n+]3c2C2c4ccccc4C3CC2(c2ccoc2)c2ccoc2)cc1 (stereo not shown) [199(f), 11,11-di(3-furyl)-5,10-ethano-5,10-dihydro-1-phenylimidazo[1,2-b]isoquinolin-4-ium chloride]",52.2,–,–
"CCOC1(OCC)C2c3ccccc3C([n+]3ccn(Cc4ccccc4)c32)C1(C)C (stereo not shown) [8(b), 11,11-diethoxy-12,12-dimethyl-5,10-ethano-5,10-dihydro-1-benzylimidazo[1,2-b]isoquinolin-4-ium chloride]",10,–,–
"Cn1nc[n+]2c1C1c3ccccc3C2CC1(c1ccccc1)c1ccccc1 (stereo not shown) [11(g), 11,11-diphenyl-5,10-ethano-5,10-dihydro-1-methyl-1,2,4-triazo[1,2-b]isoquinolin-4-ium chloride]",35,–,–
"Cn1nc[n+]2c1C1c3ccccc3C2CC1(c1ccoc1)c1ccoc1 (stereo not shown) [14(E), 11,11-di(3-furyl)-5,10-ethano-5,10-dihydro-1-methyl-1,2,4-triazolo[1,2-b]isoquinolin-4-ium chloride]",14,–,–
"COc1ccc(Cn2cc[n+]3c2C2c4ccccc4C3CC2(c2ccoc2)c2ccoc2)cc1 (stereo not shown) [19(F), 11,11-di(3-furyl)-5,10-ethano-5,10-dihydro-1-(p-methoxybenzyl)imidazo[1,2-b]isoquinolin-4-ium chloride]",30,–,–
"COc1ccc(Cn2ccc(C3(c4ccn(Cc5ccc(OC)cc5)n4)CC4c5ccccc5C3c3scc[n+]34)n2)cc1 (stereo not shown) [18(e), 11,11-di-[(1-p-methoxybenzyl)-pyrazol-3-yl)]-5,10-ethano-5,10-dihydrothiazolo[3,2-b]isoquinolinium perchlorate]",–,–,6
"c1ccc(Cn2cc[n+]3c2C2c4ccccc4C3CC2(c2ccoc2)c2ccoc2)cc1 (stereo not shown) [2(F), 11,11-di(3-furyl)-5,10-ethano-5,10-dihydro-1-benzylimidazo[1,2-b]isoquinolin-4-ium chloride]",7.7,–,–
"CCOC1(OCC)C2c3ccccc3C([n+]3cnn(C)c32)C1(C)C (stereo not shown) [10(b), 11,11-diethoxy-12,12-dimethyl-5,10-ethano-5,10-dihydro-1-methyl-1,2,4-triazolo[1,2-b]isoquinolin-4-ium chloride]",30,–,–
"c1ccc2c(c1)C1CC(c3ccoc3)(c3ccoc3)C2c2n(Cc3cccc4ccccc34)cc[n+]21 (stereo not shown) [205(e), 11,11-di(3-furyl)-5,10-ethano-5,10-dihydro-1(1-naphthylmethyl)imidazo[1,2-b]isoquinolin-4-ium chloride]",329,–,–
"c1ccc2c(c1)C1CC(c3ccoc3)(c3ccoc3)C2c2n(Cc3ccc4ccccc4c3)cc[n+]21 (stereo not shown) [204(e), 11,11-di(3-furyl)-5,10-ethano-5,10-dihydro-1-(2-naphthyl-methyl)imidazo[1,2-b]isoquinolin-4-ium chloride]",330,–,–
